Assay results: article PMC12281475, “Mediator Kinase Inhibitor Selectivity and Activity in Colorectal Cancer” (ACS Chemical Biology, 2025)
pIC50: −log10 of the molar value.

Tests used:
CDK6_CycD3 = biological target: T1, CDK6_CycD3 (Homo sapiens, UniProt Q00534); assay: Radiometric protein kinase assay (33PanQinase), CDK6_CycD3; type: biochemical
T1 construct: purchased Reaction Biology

CDK2_CycD1 = biological target: T2, CDK2_CycD1 (Homo sapiens, UniProt P24941); assay: Radiometric protein kinase assay (33PanQinase), CDK2_CycD1; type: biochemical; conditions: slope of the IC50 fit
T2 construct: purchased Reaction Biology

CDK20_CycH = CDK20_CycH (Homo sapiens, UniProt Q8IZL9); assay: Radiometric protein kinase assay (33PanQinase), CDK20_CycH; type: biochemical
CDK15_CycA2 = biological target: T3, CDK15_CycA2 (Homo sapiens, UniProt Q96Q40); assay: Radiometric protein kinase assay (33PanQinase), CDK15_CycA2; type: biochemical
T3 construct: purchased Reaction Biology

CDK2_CycA2 = biological target: T4, CDK2_CycA2 (Homo sapiens, UniProt P24941); assay: Radiometric protein kinase assay (33PanQinase), CDK2_CycA2; type: biochemical
T4 construct: purchased Reaction Biology

CDK3_CycE1 = biological target: T5, CDK3_CycE1 (Homo sapiens, UniProt Q00526); assay: Radiometric protein kinase assay (33PanQinase), CDK3_CycE1; type: biochemical; conditions: slope of the IC50 fit
T5 construct: purchased Reaction Biology

CDK2_CycE1 = biological target: T6, CDK2_CycE1 (Homo sapiens, UniProt P24941); assay: Radiometric protein kinase assay (33PanQinase), CDK2_CycE1; type: biochemical
T6 construct: purchased Reaction Biology

CDK1_CycE1 = biological target: T7, CDK1_CycE1 (Homo sapiens, UniProt P06493); assay: Radiometric protein kinase assay (33PanQinase), CDK1_CycE1; type: biochemical
T7 construct: purchased Reaction Biology

CDK5_p35NCK = biological target: T8, CDK5_p35NCK (Homo sapiens, UniProt Q00535); assay: Radiometric protein kinase assay (33PanQinase), CDK5_p35NCK; type: biochemical
T8 construct: purchased Reaction Biology

CDK9_CycT1 = biological target: T9, CDK9_CycT1 (Homo sapiens, UniProt P50750); assay: Radiometric protein kinase assay (33PanQinase), CDK9_CycT1; type: biochemical
T9 construct: purchased Reaction Biology

CDK9_CycK = biological target: T10, CDK9_CycK (Homo sapiens, UniProt P50750); assay: Radiometric protein kinase assay (33PanQinase), CDK9_CycK; type: biochemical
T10 construct: purchased Reaction Biology

CDK7_CycH_MAT1 = biological target: T11, CDK7_CycH_MAT1 (Homo sapiens, UniProt P50613); assay: Radiometric protein kinase assay (33PanQinase), CDK7_CycH_MAT1; type: biochemical
T11 construct: purchased Reaction Biology

CDK3_CycC = biological target: T12, CDK3_CycC (Homo sapiens, UniProt Q00526); assay: Radiometric protein kinase assay (33PanQinase), CDK3_CycC; type: biochemical
T12 construct: purchased Reaction Biology

CDK16_CycY = biological target: T13, CDK16_CycY (Homo sapiens, UniProt Q00536); assay: Radiometric protein kinase assay (33PanQinase), CDK16_CycY; type: biochemical
T13 construct: purchased Reaction Biology

CDK6_CycD1 = biological target: T14, CDK6_CycD1 (Homo sapiens, UniProt Q00534); assay: Radiometric protein kinase assay (33PanQinase), CDK6_CycD1; type: biochemical; conditions: slope of the IC50 fit
T14 construct: purchased Reaction Biology

CDK4_CycD2 = biological target: T15, CDK4_CycD2 (Homo sapiens, UniProt P11802); assay: Radiometric protein kinase assay (33PanQinase), CDK4_CycD2; type: biochemical
T15 construct: purchased Reaction Biology

CDK4_CycD1 = biological target: T16, CDK4_CycD1 (Homo sapiens, UniProt P11802); assay: Radiometric protein kinase assay (33PanQinase), CDK4_CycD1; type: biochemical
T16 construct: purchased Reaction Biology

CDK11B 357-795_CycK = CDK11B 357-795_CycK (Homo sapiens, UniProt P21127); assay: Radiometric protein kinase assay (33PanQinase), CDK11B 357-795_CycK; type: biochemical
CDK12_CycK = biological target: T17, CDK12_CycK (Homo sapiens, UniProt Q9NYV4); assay: Radiometric protein kinase assay (33PanQinase), CDK12_CycK; type: biochemical
T17 construct: purchased Reaction Biology

CDK20_CycT1 = CDK20_CycT1 (Homo sapiens, UniProt Q8IZL9); assay: Radiometric protein kinase assay (33PanQinase), CDK20_CycT1; type: biochemical
CDK18_CycY = CDK18_CycY (Homo sapiens, UniProt Q07002); assay: Radiometric protein kinase assay (33PanQinase), CDK18_CycY; type: biochemical
CDK1_CycB1 = biological target: T18, CDK1_CycB1 (Homo sapiens, UniProt P06493); assay: Radiometric protein kinase assay (33PanQinase), CDK1_CycB1; type: biochemical
T18 construct: purchased Reaction Biology

CDK10_CycQ = CDK10_CycQ (Homo sapiens, UniProt Q15131); assay: Radiometric protein kinase assay (33PanQinase), CDK10_CycQ; type: biochemical
CDK14_CycY = CDK14_CycY (Homo sapiens, UniProt O94921); assay: Radiometric protein kinase assay (33PanQinase), CDK14_CycY; type: biochemical
CDK4_CycD3 = biological target: T19, CDK4_CycD3 (Homo sapiens, UniProt P11802); assay: Radiometric protein kinase assay (33PanQinase), CDK4_CycD3; type: biochemical
T19 construct: purchased Reaction Biology

CDK1_CycA2 = biological target: T20, CDK1_CycA2 (Homo sapiens, UniProt P06493); assay: Radiometric protein kinase assay (33PanQinase), CDK1_CycA2; type: biochemical
T20 construct: purchased Reaction Biology

CDK13_CycK = biological target: T21, CDK13_CycK (Homo sapiens, UniProt Q14004); assay: Radiometric protein kinase assay (33PanQinase), CDK13_CycK; type: biochemical; conditions: slope of the IC50 fit
T21 construct: purchased Reaction Biology

CDK8 = tested on: CDK8; set-up: method as in numbers not given; conditions: reporter displacement assay; previously characterized compounds, no method in this paper; ref numbers not given; read-out: IC50 for in vitro CDK8 binding; cited from earlier work
CDK17_p35NCK = CDK17_p35NCK (Homo sapiens, UniProt Q00537); assay: Radiometric protein kinase assay (33PanQinase), CDK17_p35NCK; type: biochemical
CDK5_p25NCK = biological target: T22, CDK5_p25NCK (Homo sapiens, UniProt Q00535); assay: Radiometric protein kinase assay (33PanQinase), CDK5_p25NCK; type: biochemical; conditions: slope of the IC50 fit
T22 construct: purchased Reaction Biology

CDK8_CycC = biological target: T23, CDK8_CycC (Homo sapiens, UniProt P49336); assay: Radiometric protein kinase assay (33PanQinase), CDK8_CycC; type: biochemical; conditions: slope of the IC50 fit
T23 construct: purchased Reaction Biology

CDK19_CycC = biological target: T24, CDK19_CycC (Homo sapiens, UniProt Q9BWU1); assay: Radiometric protein kinase assay (33PanQinase), CDK19_CycC; type: biochemical
T24 construct: purchased Reaction Biology

CDK6_CycD2 = biological target: T25, CDK6_CycD2 (Homo sapiens, UniProt Q00534); assay: Radiometric protein kinase assay (33PanQinase), CDK6_CycD2; type: biochemical
T25 construct: purchased Reaction Biology

[1] = highest assay concentration 1.00E-05 M
[2] = highest assay concentration 1.00E-05 M, read-out: IC50

Chain of CDK17_p35NCK (Q00537 whole entry): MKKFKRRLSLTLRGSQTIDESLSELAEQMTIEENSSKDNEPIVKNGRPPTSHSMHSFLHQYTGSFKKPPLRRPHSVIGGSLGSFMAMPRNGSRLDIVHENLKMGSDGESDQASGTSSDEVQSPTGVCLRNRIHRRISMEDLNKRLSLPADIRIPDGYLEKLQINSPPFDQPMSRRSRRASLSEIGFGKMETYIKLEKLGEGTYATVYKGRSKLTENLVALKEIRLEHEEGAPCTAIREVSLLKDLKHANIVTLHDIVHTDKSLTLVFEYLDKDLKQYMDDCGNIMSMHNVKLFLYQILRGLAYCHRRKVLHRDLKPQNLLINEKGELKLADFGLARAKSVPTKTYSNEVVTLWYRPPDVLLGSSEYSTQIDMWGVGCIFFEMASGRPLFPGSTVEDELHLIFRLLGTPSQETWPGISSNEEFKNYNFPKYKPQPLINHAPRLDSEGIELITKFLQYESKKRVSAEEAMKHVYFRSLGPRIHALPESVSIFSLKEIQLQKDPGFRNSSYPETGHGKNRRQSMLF
T15 sequence (P11802 whole entry): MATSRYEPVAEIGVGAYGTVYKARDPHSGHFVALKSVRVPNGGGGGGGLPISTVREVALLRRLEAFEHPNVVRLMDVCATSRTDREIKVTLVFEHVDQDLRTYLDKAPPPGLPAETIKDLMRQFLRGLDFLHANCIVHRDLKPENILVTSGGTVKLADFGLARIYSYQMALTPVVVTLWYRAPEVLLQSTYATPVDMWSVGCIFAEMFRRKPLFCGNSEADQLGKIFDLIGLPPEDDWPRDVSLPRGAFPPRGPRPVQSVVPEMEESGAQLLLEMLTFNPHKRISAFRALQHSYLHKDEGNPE
T15 sequence (P30279 whole entry partner): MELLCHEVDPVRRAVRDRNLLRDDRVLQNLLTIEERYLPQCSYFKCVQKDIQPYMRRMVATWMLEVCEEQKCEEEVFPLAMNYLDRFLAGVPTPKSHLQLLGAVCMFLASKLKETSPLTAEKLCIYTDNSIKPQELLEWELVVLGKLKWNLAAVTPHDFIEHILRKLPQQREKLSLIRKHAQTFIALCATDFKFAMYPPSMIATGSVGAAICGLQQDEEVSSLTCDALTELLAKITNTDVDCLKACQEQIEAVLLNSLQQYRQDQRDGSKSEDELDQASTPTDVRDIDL
T19 sequence (P11802 whole entry): as the sequence (P11802 whole entry) above
T19 sequence (P30281 whole entry partner): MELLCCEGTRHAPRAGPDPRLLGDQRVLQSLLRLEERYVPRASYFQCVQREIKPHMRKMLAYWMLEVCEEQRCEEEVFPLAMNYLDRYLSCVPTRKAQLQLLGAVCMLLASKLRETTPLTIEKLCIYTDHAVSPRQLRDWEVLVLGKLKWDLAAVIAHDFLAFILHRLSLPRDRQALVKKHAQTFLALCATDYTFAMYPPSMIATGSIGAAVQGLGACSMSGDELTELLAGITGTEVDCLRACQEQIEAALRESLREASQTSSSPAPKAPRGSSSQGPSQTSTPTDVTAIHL
T1 sequence (Q00534 whole entry): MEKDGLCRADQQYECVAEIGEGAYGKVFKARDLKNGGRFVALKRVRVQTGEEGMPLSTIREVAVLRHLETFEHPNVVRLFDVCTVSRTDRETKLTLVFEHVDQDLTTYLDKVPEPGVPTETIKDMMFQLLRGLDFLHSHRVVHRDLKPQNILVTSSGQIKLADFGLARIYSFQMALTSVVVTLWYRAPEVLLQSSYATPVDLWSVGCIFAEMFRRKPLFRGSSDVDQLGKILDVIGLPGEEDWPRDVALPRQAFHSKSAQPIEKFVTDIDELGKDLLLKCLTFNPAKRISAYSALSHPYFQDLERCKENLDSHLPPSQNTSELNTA
T1 sequence (P30281 whole entry partner): as the sequence (P30281 whole entry partner) above
T25 sequence (Q00534 whole entry): as the sequence (Q00534 whole entry) above
T25 sequence (P30279 whole entry partner): as the sequence (P30279 whole entry partner) above
T12 sequence (Q00526 whole entry): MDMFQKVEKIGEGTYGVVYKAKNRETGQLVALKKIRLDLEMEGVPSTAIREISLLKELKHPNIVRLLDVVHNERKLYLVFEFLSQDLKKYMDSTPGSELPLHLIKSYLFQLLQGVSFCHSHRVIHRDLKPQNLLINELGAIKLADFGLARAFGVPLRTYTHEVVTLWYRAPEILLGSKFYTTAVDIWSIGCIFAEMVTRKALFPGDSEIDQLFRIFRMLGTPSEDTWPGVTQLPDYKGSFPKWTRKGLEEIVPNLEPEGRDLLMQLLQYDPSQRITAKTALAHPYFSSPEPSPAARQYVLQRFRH
T12 sequence (P24863 whole entry partner): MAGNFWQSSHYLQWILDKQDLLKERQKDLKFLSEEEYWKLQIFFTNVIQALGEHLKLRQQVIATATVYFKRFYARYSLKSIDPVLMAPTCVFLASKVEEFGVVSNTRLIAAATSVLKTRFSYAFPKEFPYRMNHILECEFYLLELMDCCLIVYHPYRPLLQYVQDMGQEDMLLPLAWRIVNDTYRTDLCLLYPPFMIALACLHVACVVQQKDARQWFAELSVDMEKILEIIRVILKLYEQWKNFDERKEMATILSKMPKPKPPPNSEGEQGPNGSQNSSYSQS
T11 sequence (P50613 whole entry): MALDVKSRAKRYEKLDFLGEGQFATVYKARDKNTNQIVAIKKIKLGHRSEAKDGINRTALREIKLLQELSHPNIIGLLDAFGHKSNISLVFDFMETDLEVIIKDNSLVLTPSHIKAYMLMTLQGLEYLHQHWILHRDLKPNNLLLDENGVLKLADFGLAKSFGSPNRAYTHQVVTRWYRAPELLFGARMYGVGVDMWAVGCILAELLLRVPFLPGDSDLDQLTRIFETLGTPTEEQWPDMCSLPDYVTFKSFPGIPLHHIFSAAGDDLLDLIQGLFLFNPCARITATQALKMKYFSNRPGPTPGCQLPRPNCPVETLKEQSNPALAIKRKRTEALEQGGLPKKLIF
T11 sequence (P51946 whole entry partner): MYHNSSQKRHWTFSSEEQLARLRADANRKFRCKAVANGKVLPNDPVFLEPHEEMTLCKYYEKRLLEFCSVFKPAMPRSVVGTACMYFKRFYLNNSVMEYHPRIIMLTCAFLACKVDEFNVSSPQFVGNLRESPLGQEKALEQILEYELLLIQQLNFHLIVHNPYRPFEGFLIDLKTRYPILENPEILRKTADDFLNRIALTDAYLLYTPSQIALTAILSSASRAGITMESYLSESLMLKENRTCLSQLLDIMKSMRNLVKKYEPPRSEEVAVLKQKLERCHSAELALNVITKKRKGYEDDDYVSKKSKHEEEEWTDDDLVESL
T11 sequence (P51948 whole entry partner): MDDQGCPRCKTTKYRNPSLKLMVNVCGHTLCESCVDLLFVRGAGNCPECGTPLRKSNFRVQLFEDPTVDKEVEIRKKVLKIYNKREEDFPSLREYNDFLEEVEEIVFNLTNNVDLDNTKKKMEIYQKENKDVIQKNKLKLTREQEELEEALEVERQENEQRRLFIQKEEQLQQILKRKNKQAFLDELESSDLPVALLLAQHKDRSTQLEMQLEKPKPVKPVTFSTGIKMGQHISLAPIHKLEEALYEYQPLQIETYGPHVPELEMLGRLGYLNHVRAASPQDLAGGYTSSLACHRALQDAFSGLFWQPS
T13 sequence (Q00536 whole entry): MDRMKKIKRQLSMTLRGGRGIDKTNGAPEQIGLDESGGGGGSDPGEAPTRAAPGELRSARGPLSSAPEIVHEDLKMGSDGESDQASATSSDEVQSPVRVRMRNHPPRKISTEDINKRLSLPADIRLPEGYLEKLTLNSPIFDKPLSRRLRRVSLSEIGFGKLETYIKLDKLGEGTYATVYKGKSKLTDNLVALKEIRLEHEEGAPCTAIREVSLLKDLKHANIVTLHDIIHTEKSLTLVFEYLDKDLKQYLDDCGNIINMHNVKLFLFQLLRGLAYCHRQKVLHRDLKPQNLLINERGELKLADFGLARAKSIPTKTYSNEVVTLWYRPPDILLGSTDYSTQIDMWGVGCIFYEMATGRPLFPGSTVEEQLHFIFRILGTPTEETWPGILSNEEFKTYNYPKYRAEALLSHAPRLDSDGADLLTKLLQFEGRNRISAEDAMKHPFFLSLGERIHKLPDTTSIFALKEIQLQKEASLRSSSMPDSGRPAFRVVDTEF
T13 sequence (Q8ND76 whole entry partner): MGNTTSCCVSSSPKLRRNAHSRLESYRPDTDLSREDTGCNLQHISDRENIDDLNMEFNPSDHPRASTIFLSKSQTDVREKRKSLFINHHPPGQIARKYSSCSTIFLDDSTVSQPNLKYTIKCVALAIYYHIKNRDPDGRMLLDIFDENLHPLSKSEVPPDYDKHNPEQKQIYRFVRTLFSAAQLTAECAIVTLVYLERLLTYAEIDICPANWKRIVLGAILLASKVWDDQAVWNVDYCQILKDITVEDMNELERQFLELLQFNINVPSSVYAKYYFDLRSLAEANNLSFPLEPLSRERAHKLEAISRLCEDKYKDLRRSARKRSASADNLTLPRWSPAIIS
Chain of CDK20_CycT1 (Q8IZL9 whole entry): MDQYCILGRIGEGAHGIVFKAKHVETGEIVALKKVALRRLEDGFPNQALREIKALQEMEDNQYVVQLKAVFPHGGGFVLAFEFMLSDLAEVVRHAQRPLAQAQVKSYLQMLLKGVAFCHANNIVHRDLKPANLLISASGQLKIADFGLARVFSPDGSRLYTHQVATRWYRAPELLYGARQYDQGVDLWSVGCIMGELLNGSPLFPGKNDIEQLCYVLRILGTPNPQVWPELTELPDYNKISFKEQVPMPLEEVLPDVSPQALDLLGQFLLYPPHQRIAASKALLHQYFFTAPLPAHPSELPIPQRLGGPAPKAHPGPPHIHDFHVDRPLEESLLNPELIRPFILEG
Chain of CDK20_CycH (Q8IZL9 whole entry): as above

SMILES: Cn1ncc2cc(-c3cnc(N)c(Cl)c3N3CCC4(CCNC4=O)CC3)ccc21 [CCT251921]
- pIC50 (CDK6_CycD3; [1]): < 5.00
- Hill Slope (CDK6_CycD3; slope of the IC50 fit): -0.33
- Hill Slope (CDK2_CycD1): 0
- pIC50 (CDK20_CycH; [1]): < 5.00
- Hill Slope (CDK20_CycH; slope of the IC50 fit): -0.38
- pIC50 (CDK15_CycA2; [1]): < 5.00
- Hill Slope (CDK15_CycA2; slope of the IC50 fit): -0.85
- pIC50 (CDK2_CycA2; [2]): < 5.00
- Hill Slope (CDK2_CycA2; slope of the IC50 fit): -0.89
- Hill Slope (CDK3_CycE1): -0.12
- pIC50 (CDK2_CycE1; [2]): < 5.00
- Hill Slope (CDK2_CycE1; slope of the IC50 fit): -0.94
- pIC50 (CDK1_CycE1; [2]): < 5.00
- Hill Slope (CDK1_CycE1; slope of the IC50 fit): -0.77
- pIC50 (CDK5_p35NCK; [1]): < 5.00
- Hill Slope (CDK5_p35NCK; slope of the IC50 fit): -0.4
- pIC50 (CDK9_CycT1; [1]): < 5.00
- Hill Slope (CDK9_CycT1; slope of the IC50 fit): -1.01
- pIC50 (CDK9_CycK; [1]): < 5.00
- Hill Slope (CDK9_CycK; slope of the IC50 fit): -0.77
- pIC50 (CDK7_CycH_MAT1; [1]): < 5.00
- Hill Slope (CDK7_CycH_MAT1; slope of the IC50 fit): -0.33
- pIC50 (CDK3_CycC): < 5.00
- Hill Slope (CDK3_CycC; slope of the IC50 fit): -0.55
- pIC50 (CDK16_CycY; [1]): < 5.00
- Hill Slope (CDK16_CycY; slope of the IC50 fit): -0.3
- Hill Slope (CDK6_CycD1): -0.13
- pIC50 (CDK4_CycD2; [1]): < 5.00
- Hill Slope (CDK4_CycD2; slope of the IC50 fit): -0.33
- pIC50 (CDK4_CycD1; [1]): < 5.00
- Hill Slope (CDK4_CycD1; slope of the IC50 fit): -0.37
- pIC50 (CDK11B 357-795_CycK; [1]): < 5.00
- Hill Slope (CDK11B 357-795_CycK; slope of the IC50 fit): -0.41
- pIC50 (CDK12_CycK; [1]): < 5.00
- Hill Slope (CDK12_CycK; slope of the IC50 fit): -0.32
- pIC50 (CDK20_CycT1; [1]): < 5.00
- Hill Slope (CDK20_CycT1; slope of the IC50 fit): -0.33
- pIC50 (CDK18_CycY; [1]): < 5.00
- Hill Slope (CDK18_CycY; slope of the IC50 fit): -0.84
- pIC50 (CDK1_CycB1; [1]): < 5.00
- Hill Slope (CDK1_CycB1; slope of the IC50 fit): -0.32
- pIC50 (CDK10_CycQ; [1]): < 5.00
- Hill Slope (CDK10_CycQ; slope of the IC50 fit): -0.72
- pIC50 (CDK14_CycY; [1]): < 5.00
- Hill Slope (CDK14_CycY; slope of the IC50 fit): -0.73
- pIC50 (CDK4_CycD3; [1]): < 5.00
- Hill Slope (CDK4_CycD3; slope of the IC50 fit): -0.37
- pIC50 (CDK1_CycA2; [2]): < 5.00
- Hill Slope (CDK1_CycA2; slope of the IC50 fit): -0.53
- Hill Slope (CDK13_CycK): 0.03
- pIC50 (CDK8): 8.31
- pIC50 (CDK17_p35NCK; [1]): < 5.00
- Hill Slope (CDK17_p35NCK; slope of the IC50 fit): -0.39
- Hill Slope (CDK5_p25NCK): -0.17
- Hill Slope (CDK8_CycC): -0.55
- pIC50 (CDK19_CycC): 6.39
- Hill Slope (CDK19_CycC; slope of the IC50 fit): -0.45
- pIC50 (CDK6_CycD2; [1]): < 5.00
- Hill Slope (CDK6_CycD2; slope of the IC50 fit): -0.59
